Strand notation (5' to 3'): a small letter for the sugar, then the base; units joined by * are phosphorothioate-linked, units joined directly phosphodiester-linked; [ ] holds rarer units or linkages, { } end groups; capitals alone tell only the bases. e = 2'-O-(2-methoxyethyl) (MOE); [5mC] = 5-methylcytosine; d = 2'-deoxy (DNA)
Test system: human Factor 7 mRNA
Assay: Antisense inhibition of human Factor 7 mRNA in HepB3 cells, 50 nM antisense oligonucleotide, lipofectin
Format: cell-based
Details: Table 6, 50 nM, lipofectin, approximately 24 hours
Outline: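 HepB3 cells were transfected by lipofectin with 50 nM antisense oligonucleotide and harvested after about 24 h. Factor 7 mRNA was measured by real-time RT-PCR (primer probe set RTS 2927 in some runs), normalized to RIBOGREEN total RNA, and reported as percent inhibition versus untreated control.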

Going from “422186 (antisense eG*eG*eA*dA*dG*dA*dA*dG*dG*dG*dA*d[5mC]*dG*dG*dA*dA*dG*eG*eT*eG) [compound 422186]” to “422187 (antisense e[5mC]*eG*eG*dA*dA*dG*dA*dA*dG*dG*dG*dA*d[5mC]*dG*dG*dA*dA*eG*eG*eT) [compound 422187]”, the “% Inhibition” value rises from 14% to 28%.

First: 422188 (antisense eG*e[5mC]*eG*dG*dA*dA*dG*dA*dA*dG*dG*dG*dA*d[5mC]*dG*dG*dA*eA*eG*eG) [compound 422188]
Second: 422189 (antisense e[5mC]*eG*e[5mC]*dG*dG*dA*dA*dG*dA*dA*dG*dG*dG*dA*d[5mC]*dG*dG*eA*eA*eG) [compound 422189]
The “% Inhibition” value of the first is higher: 37% for the first, 0% for the second.

Compared with “422190 (antisense eG*e[5mC]*eG*d[5mC]*dG*dG*dA*dA*dG*dA*dA*dG*dG*dG*dA*d[5mC]*dG*eG*eA*eA) [compound 422190]”, “422191 (antisense eA*eG*e[5mC]*dG*d[5mC]*dG*dG*dA*dA*dG*dA*dA*dG*dG*dG*dA*d[5mC]*eG*eG*eA) [compound 422191]” is higher in “% Inhibition” value: 12% for the first, 27% for the second.

Compared with “422192 (antisense eG*eA*eG*d[5mC]*dG*d[5mC]*dG*dG*dA*dA*dG*dA*dA*dG*dG*dG*dA*e[5mC]*eG*eG) [compound 422192]”, “422193 (antisense eT*eG*eA*dG*d[5mC]*dG*d[5mC]*dG*dG*dA*dA*dG*dA*dA*dG*dG*dG*eA*e[5mC]*eG) [compound 422193]” is lower in “% Inhibition” value: 27% for the first, 6% for the second.

Compared with “422194 (antisense e[5mC]*eT*eG*dA*dG*d[5mC]*dG*d[5mC]*dG*dG*dA*dA*dG*dA*dA*dG*dG*eG*eA*e[5mC]) [compound 422194]”, “422195 (antisense eA*e[5mC]*eT*dG*dA*dG*d[5mC]*dG*d[5mC]*dG*dG*dA*dA*dG*dA*dA*dG*eG*eG*eA) [compound 422195]” is higher in “% Inhibition” value: 11% for the first, 37% for the second.

Compared with “422196 (antisense eT*eA*e[5mC]*dT*dG*dA*dG*d[5mC]*dG*d[5mC]*dG*dG*dA*dA*dG*dA*dA*eG*eG*eG) [compound 422196]”, “422197 (antisense eT*eT*eA*d[5mC]*dT*dG*dA*dG*d[5mC]*dG*d[5mC]*dG*dG*dA*dA*dG*dA*eA*eG*eG) [compound 422197]” is higher in “% Inhibition” value: 2% for the first, 26% for the second.

Compared with “422198 (antisense eG*eT*eT*dA*d[5mC]*dT*dG*dA*dG*d[5mC]*dG*d[5mC]*dG*dG*dA*dA*dG*eA*eA*eG) [compound 422198]”, “422199 (antisense eG*eG*eT*dT*dA*d[5mC]*dT*dG*dA*dG*d[5mC]*dG*d[5mC]*dG*dG*dA*dA*eG*eA*eA) [compound 422199]” is higher in “% Inhibition” value: 50% for the first, 65% for the second.

Same assay, conditions: gapmers targeted to nucleobases 4868 to 4899 of SEQ ID NO: 1, Table 8

Going from “422213 (antisense eT*e[5mC]*eT*dG*d[5mC]*dA*dG*dG*dA*dG*d[5mC]*dG*dG*d[5mC]*d[5mC]*dT*dA*eA*eA*eT) [compound 422213]” to “422214 (antisense eT*eT*e[5mC]*dT*dG*d[5mC]*dA*dG*dG*dA*dG*d[5mC]*dG*dG*d[5mC]*d[5mC]*dT*eA*eA*eA) [compound 422214]”, the “% Inhibition of human Factor 7 mRNA levels” value falls from 67% to 60%.

Same assay, conditions: oligonucleotides targeted to nucleobases 11830 to 11869 of SEQ ID NO: 1 (Table 9)

Compared with “422171 (antisense eG*eG*e[5mC]*dT*dG*dA*dG*dG*dA*dG*dA*d[5mC]*dA*dA*dT*dG*dG*eT*e[5mC]*eA) [compound 422171]”, “422172 (antisense eT*eG*eG*d[5mC]*dT*dG*dA*dG*dG*dA*dG*dA*d[5mC]*dA*dA*dT*dG*eG*eT*e[5mC]) [compound 422172]” is lower in “% Inhibition (human Factor 7 mRNA levels)” value: 61% for the first, 39% for the second.

First: 422173 (antisense e[5mC]*eT*eG*dG*d[5mC]*dT*dG*dA*dG*dG*dA*dG*dA*d[5mC]*dA*dA*dT*eG*eG*eT) [compound 422173]
Second: 422174 (antisense eG*e[5mC]*eT*dG*dG*d[5mC]*dT*dG*dA*dG*dG*dA*dG*dA*d[5mC]*dA*dA*eT*eG*eG) [compound 422174]
The “% Inhibition (human Factor 7 mRNA levels)” value of the first is lower: 51% for the first, 55% for the second.

Same assay, conditions: oligonucleotides targeted to nucleobases 13760 to 13789 of SEQ ID NO: 1 (Table 10)

Compared with “422175 (antisense e[5mC]*eG*e[5mC]*d[5mC]*dG*dG*d[5mC]*dT*d[5mC]*dT*dG*d[5mC]*dT*d[5mC]*dA*dT*d[5mC]*e[5mC]*e[5mC]*e[5mC]) [compound 422175]”, “422176 (antisense e[5mC]*e[5mC]*eG*d[5mC]*d[5mC]*dG*dG*d[5mC]*dT*d[5mC]*dT*dG*d[5mC]*dT*d[5mC]*dA*dT*e[5mC]*e[5mC]*e[5mC]) [compound 422176]” is lower in “% Inhibition (human Factor 7 mRNA levels)” value: 69% for the first, 52% for the second.

Going from “422178 (antisense eA*e[5mC]*e[5mC]*d[5mC]*dG*d[5mC]*d[5mC]*dG*dG*d[5mC]*dT*d[5mC]*dT*dG*d[5mC]*dT*d[5mC]*eA*eT*e[5mC]) [compound 422178]” to “422179 (antisense e[5mC]*eA*e[5mC]*d[5mC]*d[5mC]*dG*d[5mC]*d[5mC]*dG*dG*d[5mC]*dT*d[5mC]*dT*dG*d[5mC]*dT*e[5mC]*eA*eT) [compound 422179]”, the “% Inhibition (human Factor 7 mRNA levels)” value rises from 37% to 43%.

Compared with “422180 (antisense e[5mC]*e[5mC]*eA*d[5mC]*d[5mC]*d[5mC]*dG*d[5mC]*d[5mC]*dG*dG*d[5mC]*dT*d[5mC]*dT*dG*d[5mC]*eT*e[5mC]*eA) [compound 422180]”, “422181 (antisense eG*e[5mC]*e[5mC]*dA*d[5mC]*d[5mC]*d[5mC]*dG*d[5mC]*d[5mC]*dG*dG*d[5mC]*dT*d[5mC]*dT*dG*e[5mC]*eT*e[5mC]) [compound 422181]” is higher in “% Inhibition (human Factor 7 mRNA levels)” value: 54% for the first, 66% for the second.

First: 422182 (antisense e[5mC]*eG*e[5mC]*d[5mC]*dA*d[5mC]*d[5mC]*d[5mC]*dG*d[5mC]*d[5mC]*dG*dG*d[5mC]*dT*d[5mC]*dT*eG*e[5mC]*eT) [compound 422182]
Second: 422184 (antisense eT*eG*e[5mC]*dG*d[5mC]*d[5mC]*dA*d[5mC]*d[5mC]*d[5mC]*dG*d[5mC]*d[5mC]*dG*dG*d[5mC]*dT*e[5mC]*eT*eG) [compound 422184]
The “% Inhibition (human Factor 7 mRNA levels)” value of the first is lower: 11% for the first, 55% for the second.

In the case of “422185 (antisense e[5mC]*eT*eG*d[5mC]*dG*d[5mC]*d[5mC]*dA*d[5mC]*d[5mC]*d[5mC]*dG*d[5mC]*d[5mC]*dG*dG*d[5mC]*eT*e[5mC]*eT) [compound 422185]”, the “% Inhibition (human Factor 7 mRNA levels)” value is reported as 48%.

Same assay, conditions: oligonucleotides targeted to nucleobases 14707 to 14732 of SEQ ID NO: 1 (Table 11)

First: 422200 (antisense e[5mC]*e[5mC]*eT*dG*dA*dG*dG*d[5mC]*d[5mC]*dA*dG*d[5mC]*dA*dG*dA*dT*d[5mC]*eA*e[5mC]*eG) [compound 422200]
Second: 422201 (antisense eG*e[5mC]*e[5mC]*dT*dG*dA*dG*dG*d[5mC]*d[5mC]*dA*dG*d[5mC]*dA*dG*dA*dT*e[5mC]*eA*e[5mC]) [compound 422201]
The “% Inhibition (human Factor 7 mRNA levels)” value of the first is lower: 58% for the first, 71% for the second.

Compared with “422202 (antisense eA*eG*e[5mC]*d[5mC]*dT*dG*dA*dG*dG*d[5mC]*d[5mC]*dA*dG*d[5mC]*dA*dG*dA*eT*e[5mC]*eA) [compound 422202]”, “422203 (antisense e[5mC]*eA*eG*d[5mC]*d[5mC]*dT*dG*dA*dG*dG*d[5mC]*d[5mC]*dA*dG*d[5mC]*dA*dG*eA*eT*e[5mC]) [compound 422203]” is higher in “% Inhibition (human Factor 7 mRNA levels)” value: 49% for the first, 52% for the second.

First: 422204 (antisense eG*e[5mC]*eA*dG*d[5mC]*d[5mC]*dT*dG*dA*dG*dG*d[5mC]*d[5mC]*dA*dG*d[5mC]*dA*eG*eA*eT) [compound 422204]
Second: 422205 (antisense eA*eG*e[5mC]*dA*dG*d[5mC]*d[5mC]*dT*dG*dA*dG*dG*d[5mC]*d[5mC]*dA*dG*d[5mC]*eA*eG*eA) [compound 422205]
The “% Inhibition (human Factor 7 mRNA levels)” value of the first is higher: 72% for the first, 63% for the second.

In the case of “422206 (antisense e[5mC]*eA*eG*d[5mC]*dA*dG*d[5mC]*d[5mC]*dT*dG*dA*dG*dG*d[5mC]*d[5mC]*dA*dG*e[5mC]*eA*eG) [compound 422206]”, the “% Inhibition (human Factor 7 mRNA levels)” value is reported as 65%.

Same assay, conditions: oligonucleotides targeted to nucleobases 15098 to 15122 of SEQ ID NO: 1 (Table 12)

Compared with “422207 (antisense e[5mC]*eA*e[5mC]*dA*d[5mC]*dA*dT*dG*dG*dA*dG*dT*d[5mC]*dA*dG*d[5mC]*dA*eT*e[5mC]*eG) [compound 422207]”, “422208 (antisense eG*e[5mC]*eA*d[5mC]*dA*d[5mC]*dA*dT*dG*dG*dA*dG*dT*d[5mC]*dA*dG*d[5mC]*eA*eT*e[5mC]) [compound 422208]” is higher in “% Inhibition (human Factor 7 mRNA levels)” value: 41% for the first, 56% for the second.

Going from “422209 (antisense eA*eG*e[5mC]*dA*d[5mC]*dA*d[5mC]*dA*dT*dG*dG*dA*dG*dT*d[5mC]*dA*dG*e[5mC]*eA*eT) [compound 422209]” to “422210 (antisense e[5mC]*eA*eG*d[5mC]*dA*d[5mC]*dA*d[5mC]*dA*dT*dG*dG*dA*dG*dT*d[5mC]*dA*eG*e[5mC]*eA) [compound 422210]”, the “% Inhibition (human Factor 7 mRNA levels)” value falls from 47% to 25%.

First: 422211 (antisense eA*e[5mC]*eA*dG*d[5mC]*dA*d[5mC]*dA*d[5mC]*dA*dT*dG*dG*dA*dG*dT*d[5mC]*eA*eG*e[5mC]) [compound 422211]
Second: 422212 (antisense eG*eA*e[5mC]*dA*dG*d[5mC]*dA*d[5mC]*dA*d[5mC]*dA*dT*dG*dG*dA*dG*dT*e[5mC]*eA*eG) [compound 422212]
The “% Inhibition (human Factor 7 mRNA levels)” value of the first is higher: 42% for the first, 30% for the second.

Source: patent US9029337B2, “Modulation of factor 7 expression” (Isis Pharmaceuticals, Inc., priority 2007, dated 2015)
